Data on two compounds can be found in patent US20030065035A1, “Novel stilbene derivative crystal and method for producing the same” (AJINOMOTO CO. INC, priority 2000, published 2003).

Series [1] can be described thus: Water adsorption isotherm (water adsorption level, BELSORP-18 analyzer). The class given is physicochemical. The note with it: constant temperature of 25° C.; crystal dried overnight in vacuum at 60° C.; results in FIGS. 3 and 4; hydrochloride. The protocol: Preparation of Water Adsorption Isotherm (Water Adsorption Constant Temperature Line):
After the Type IV crystal recovered above was dried overnight in vacuum at 60° C., the water adsorption level of the crystal was measured at a constant temperature of 25° C. by a fully automatic water adsorption analyzer (BELSORP-18: Nippon Bell K.K.) (see Mitsuiki et al., J. Agric. Food Chem., vol.46, No. 9, pages 3528-3534 (1998)).
The water adsorption level of the Type I crystal was also measured in the same manner as above.

The nature of series [2]: X ray powder diffraction pattern of the crystal under humidity (crystal structure stability). The class given is physicochemical. The note with it: relative humidity of 80% or less.

For `COc1ccc(/C=C\c2cc(OC)c(OC)c(OC)c2)cc1NC(=O)[C@@H](N)CO.Cl` [Type I crystal, (Z)-N-[2-methoxy-5-[2-(3,4,5-trimethoxyphenyl)vinyl]phenyl]-L-serinamide hydrochloride, reference compound], the “water (water vapor) adsorption level versus relative humidity” value in series [1] is listed as “adsorbed water in a degree roughly proportional to relative humidity”.

As to `COc1ccc(/C=C\c2cc(OC)c(OC)c(OC)c2)cc1NC(=O)[C@@H](N)CO.Cl` [Type IV crystal, (Z)-N-[2-methoxy-5-[2-(3,4,5-trimethoxyphenyl)vinyl]phenyl]-L-serinamide hydrochloride], in series [2], the “change of X ray powder diffraction pattern / crystal structure” value is reported as “did not change”. In addition, in series [1], the “water (water vapor) adsorption level versus relative humidity” value is “adsorbed much less water up to around a relative humidity of 80%”.
